Results reported in the supplement of paper PMC6045584.
± gives the standard deviation of the averaged measurements.

What was measured:
RESVERATROL = compound: Oc1ccc(/C=C/c2cc(O)cc(O)c2)cc1 [RESVERATROL]; experiment: surviving fraction relative to DMSO-only wells; higher = less growth inhibition; conditions: exposure time: 5 days
Procedure, shortened: (§1)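 Tumour cell lines in log phase were plated in 384-well plates at 250–500 cells per well, then, after 24 hours, exposed continuously for five days to inhibitors at 0.5, 1, 5, 10, 50, 100, 500 and 1000 nM. Viability came from CellTiter-Glo luminescence, and surviving fraction is that signal normalised to the median of DMSO-only wells. Plates were read after 10 minutes at room temperature, and each line, screened three times, was kept only when replicate Pearson r was >0.7 and median Z' was >0.3.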

FLUOROURACIL = compound: O=c1[nH]cc(F)c(=O)[nH]1 [FLUOROURACIL]; experiment: as above; conditions: exposure time: 5 days
Procedure, shortened: as §1

| Test System | surviving fraction (RESVERATROL; 0.5 nM) | surviving fraction (RESVERATROL; 1 nM) | surviving fraction (RESVERATROL; 5 nM) | surviving fraction (RESVERATROL; 10 nM) | surviving fraction (RESVERATROL; 50 nM) | surviving fraction (RESVERATROL; 100 nM) | surviving fraction (RESVERATROL; 500 nM) | surviving fraction (RESVERATROL; 1000 nM) | surviving fraction (FLUOROURACIL; 0.5 nM) | surviving fraction (FLUOROURACIL; 1 nM) | surviving fraction (FLUOROURACIL; 5 nM) | surviving fraction (FLUOROURACIL; 10 nM) | surviving fraction (FLUOROURACIL; 50 nM) | surviving fraction (FLUOROURACIL; 100 nM) | surviving fraction (FLUOROURACIL; 500 nM) | surviving fraction (FLUOROURACIL; 1000 nM) |
| --- | --- | --- | --- | --- | --- | --- | --- | --- | --- | --- | --- | --- | --- | --- | --- | --- |
| JURKAT HAEMATOPOIETIC AND LYMPHOID TISSUE | 1.022 ± 0.0052 | 1.04 ± 0.022 | 1.02 ± 0.011 | 1.04 ± 0.033 | 0.985 ± 0.018 | 0.953 ± 0.011 | 1.02 ± 0.029 | 1.04 ± 0.039 | 1.14 ± 0.028 | 1.09 ± 0.0023 | 1.09 ± 0.049 | 1.09 ± 0.016 | 1.04 ± 0.069 | 1.03 ± 0.061 | 1.07 ± 0.022 | 0.842 ± 0.057 |
| SCC003 HEADNECK | 1.05 ± 0.056 | 1.06 ± 0.15 | 1.14 ± 0.012 | 1.12 ± 0.058 | 1.06 ± 0.084 | 1.1 ± 0.064 | 1.09 ± 0.017 | 1.15 ± 0.075 | 1.02 ± 0.082 | 1.05 ± 0.042 | 1.03 ± 0.024 | 0.965 ± 0.044 | 1.02 ± 0.12 | 0.881 ± 0.036 | 0.6943 ± 0.005 | 0.87 ± 0.13 |
| HCC78 LUNG | 0.894 ± 0.15 | 0.894 ± 0.065 | 0.983 ± 0.035 | 1.05 ± 0.15 | 1.12 ± 0.2 | 1.03 ± 0.1 | 0.901 ± 0.26 | 0.904 ± 0.1 | 1.01 ± 0.16 | 0.913 ± 0.1 | 1.19 ± 0.12 | 0.986 ± 0.062 | 1.28 ± 0.093 | 1.1 ± 0.15 | 0.973 ± 0.1 | 0.432 ± 0.036 |
| MFM223 BREAST | 1.06 ± 0.062 | 1.45 ± 0.56 | 1.15 ± 0.042 | 1.46 ± 0.46 | 1.08 ± 0.086 | 1.08 ± 0.18 | 1.19 ± 0.046 | 1.08 ± 0.11 | 1.14 ± 0.21 | 1.12 ± 0.17 | 1.18 ± 0.22 | 1.096 ± 0.0076 | 0.719 ± 0.014 | 0.772 ± 0.062 | 0.738 ± 0.036 | 0.667 ± 0.032 |
| HCC202 BREAST | 1 ± 0.23 | 1.18 ± 0.11 | 1.14 ± 0.059 | 1.06 ± 0.05 | 1.75 ± 0.46 | 1.49 ± 0.42 | 1.32 ± 0.14 | 1.33 ± 0.39 | 1.03 ± 0.41 | 1.22 ± 0.26 | 1.02 ± 0.15 | 1.13 ± 0.24 | 0.966 ± 0.12 | 1.15 ± 0.52 | 0.895 ± 0.3 | 0.866 ± 0.29 |
| HCC1395 BREAST | 0.968 ± 0.099 | 1.07 ± 0.075 | 1.1 ± 0.069 | 1.28 ± 0.16 | 1.02 ± 0.094 | 1.21 ± 0.1 | 1.05 ± 0.09 | 0.985 ± 0.15 | 1.01 ± 0.093 | 0.966 ± 0.21 | 1.13 ± 0.1 | 1.16 ± 0.072 | 0.945 ± 0.1 | 0.955 ± 0.12 | 0.887 ± 0.053 | 0.947 ± 0.077 |
| BT20 BREAST | 1.05 ± 0.052 | 1.13 ± 0.1 | 1.13 ± 0.038 | 1.15 ± 0.059 | 1.06 ± 0.037 | 1.12 ± 0.078 | 1.12 ± 0.19 | 1.25 ± 0.12 | 1.15 ± 0.11 | 1.18 ± 0.11 | 1.25 ± 0.058 | 1.16 ± 0.07 | 0.844 ± 0.079 | 0.836 ± 0.049 | 1.09 ± 0.049 | 0.929 ± 0.1 |
| U2OS BONE | 1.06 ± 0.018 | 1.04 ± 0.022 | 1.04 ± 0.029 | 1.06 ± 0.054 | 1.06 ± 0.031 | 1.08 ± 0.028 | 1.05 ± 0.033 | 1.05 ± 0.027 | 1.02 ± 0.021 | 1.04 ± 0.025 | 1.083 ± 0.0072 | 1.05 ± 0.05 | 1.01 ± 0.011 | 0.966 ± 0.083 | 0.843 ± 0.051 | 0.674 ± 0.043 |
| SG31 HEADNECK | 1.1 ± 0.23 | 1.23 ± 0.18 | 1.03 ± 0.095 | 1.13 ± 0.095 | 1.05 ± 0.15 | 0.975 ± 0.19 | 1.13 ± 0.18 | 1.42 ± 0.32 | 1.09 ± 0.14 | 1.25 ± 0.32 | 1.05 ± 0.085 | 0.973 ± 0.11 | 0.893 ± 0.048 | 0.981 ± 0.16 | 0.903 ± 0.059 | 0.876 ± 0.054 |
| OS25HAL BONE | 1.01 ± 0.026 | 1.11 ± 0.059 | 1.03 ± 0.032 | 0.996 ± 0.024 | 1.001 ± 0.0068 | 1.08 ± 0.04 | 1.03 ± 0.018 | 1.16 ± 0.027 | 1 ± 0.062 | 1.01 ± 0.056 | 0.985 ± 0.019 | 0.977 ± 0.014 | 1.05 ± 0.082 | 1.15 ± 0.014 | 0.939 ± 0.032 | 0.808 ± 0.032 |
| SCC36 HEADNECK | 1.13 ± 0.082 | 1.14 ± 0.11 | 1.22 ± 0.044 | 1.19 ± 0.045 | 1.25 ± 0.07 | 1.25 ± 0.03 | 1.05 ± 0.099 | 1.16 ± 0.16 | 0.92 ± 0.093 | 0.872 ± 0.052 | 1.06 ± 0.13 | 1.05 ± 0.031 | 0.739 ± 0.095 | 0.775 ± 0.029 | 0.624 ± 0.076 | 0.529 ± 0.047 |
| SUM44 BREAST | 1.1 ± 0.1 | 1.18 ± 0.28 | 1.19 ± 0.27 | 1.25 ± 0.36 | 1.1 ± 0.17 | 1.21 ± 0.26 | 1.2 ± 0.3 | 1.31 ± 0.41 | 1.03 ± 0.23 | 0.958 ± 0.17 | 1.02 ± 0.16 | 0.956 ± 0.12 | 1.05 ± 0.12 | 0.788 ± 0.041 | 0.982 ± 0.05 | 0.726 ± 0.07 |
| SG32 HEADNECK | 1.02 ± 0.14 | 0.975 ± 0.06 | 1.16 ± 0.25 | 0.989 ± 0.051 | 0.999 ± 0.018 | 1.05 ± 0.092 | 0.989 ± 0.2 | 1.01 ± 0.11 | 1.28 ± 0.12 | 0.974 ± 0.046 | 1.21 ± 0.34 | 0.932 ± 0.029 | 0.864 ± 0.056 | 0.716 ± 0.098 | 0.8 ± 0.095 | 0.442 ± 0.096 |
| SUM159 BREAST | 1.04 ± 0.028 | 1.1 ± 0.024 | 1.06 ± 0.03 | 1.06 ± 0.021 | 1.033 ± 0.0053 | 1.07 ± 0.016 | 1.08 ± 0.018 | 1.11 ± 0.017 | 1.1 ± 0.024 | 1.07 ± 0.023 | 1.08 ± 0.027 | 1.06 ± 0.026 | 1.073 ± 0.0051 | 1.01 ± 0.012 | 1.03 ± 0.014 | 0.915 ± 0.01 |
| HCC1806 BREAST | 1.04 ± 0.073 | 1.04 ± 0.072 | 1.18 ± 0.14 | 1.18 ± 0.051 | 1.24 ± 0.049 | 1.23 ± 0.044 | 0.963 ± 0.029 | 0.963 ± 0.19 | 1.1 ± 0.028 | 1.02 ± 0.12 | 1.08 ± 0.043 | 0.973 ± 0.081 | 0.992 ± 0.069 | 0.939 ± 0.065 | 0.737 ± 0.12 | 0.601 ± 0.033 |
| NY BONE | 0.936 ± 0.024 | 0.976 ± 0.03 | 1.06 ± 0.022 | 1.06 ± 0.048 | 1.01 ± 0.035 | 1.05 ± 0.047 | 0.951 ± 0.0076 | 1.01 ± 0.054 | 0.98 ± 0.029 | 0.923 ± 0.032 | 1.03 ± 0.034 | 1.01 ± 0.028 | 1.07 ± 0.02 | 0.993 ± 0.018 | 0.934 ± 0.025 | 0.821 ± 0.014 |
| RDES SOFT TISSUE | 1.25 ± 0.14 | 1.25 ± 0.05 | 1.29 ± 0.042 | 1.32 ± 0.054 | 1.37 ± 0.13 | 1.35 ± 0.24 | 1.68 ± 0.053 | 1.67 ± 0.12 | 1.09 ± 0.053 | 0.968 ± 0.032 | 1.06 ± 0.047 | 0.912 ± 0.048 | 0.788 ± 0.19 | 0.632 ± 0.01 | 1.3 ± 0.11 | 1.51 ± 0.22 |
| SNU475 LIVER | 0.98 ± 0.043 | 1.04 ± 0.029 | 1.02 ± 0.06 | 0.988 ± 0.029 | 0.9453 ± 0.006 | 1.01 ± 0.014 | 0.99 ± 0.035 | 1.04 ± 0.017 | 1 ± 0.058 | 0.982 ± 0.018 | 0.99 ± 0.046 | 0.9607 ± 0.0047 | 0.886 ± 0.021 | 0.892 ± 0.025 | 0.826 ± 0.081 | 0.741 ± 0.066 |
| PCI30 HEADNECK | 1 ± 0.031 | 1.02 ± 0.058 | 1.04 ± 0.03 | 1.1 ± 0.08 | 1.05 ± 0.031 | 1.13 ± 0.045 | 1.07 ± 0.082 | 1.16 ± 0.015 | 0.934 ± 0.056 | 1.06 ± 0.029 | 1.08 ± 0.058 | 1.1 ± 0.058 | 0.97 ± 0.067 | 0.981 ± 0.082 | 0.959 ± 0.06 | 0.931 ± 0.034 |
